Test results as given in PubChem BioAssay (NCI).
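In this assay, cells in 96-well plates receive the compound at five concentrations for 48 hours. Endpoints are linearly interpolated between the surrounding concentrations. GI50 = concentration required for 50% inhibition of growth. The concentration for full growth arrest is given as TGI.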

Legend:
Assay in all cases: DTP human tumour cell line panel, 48 h
TK-10 renal = test system: TK-10 renal
HS 578T breast = test system: HS 578T breast
SW-620 colon = test system: SW-620 colon
HCC-2998 colon = test system: HCC-2998 colon
LOX IMVI melanoma = test system: LOX IMVI melanoma
NCI-H226 lung = test system: NCI-H226 lung
NCI-H522 lung = test system: NCI-H522 lung
MDA-MB-435 = test system: MDA-MB-435
UACC-257 melanoma = test system: UACC-257 melanoma
HCT-15 colon = test system: HCT-15 colon
SR leukemia = test system: SR leukemia
OVCAR-5 ovarian = test system: OVCAR-5 ovarian
IGROV1 ovarian = test system: IGROV1 ovarian
HOP-92 NSCLC = test system: HOP-92 NSCLC
A549 NSCLC = test system: A549 NSCLC
HOP-62 NSCLC = test system: HOP-62 NSCLC
CAKI-1 renal = test system: CAKI-1 renal
UO-31 renal = test system: UO-31 renal
RPMI-8226 leukemia = test system: RPMI-8226 leukemia
NCI-H23 lung = test system: NCI-H23 lung
CCRF-CEM leukemia = test system: CCRF-CEM leukemia
PC-3 prostate = test system: PC-3 prostate
SK-MEL-2 melanoma = test system: SK-MEL-2 melanoma
MDA-MB-231 breast = test system: MDA-MB-231 breast
EKVX NSCLC = test system: EKVX NSCLC
KM12 colon = test system: KM12 colon
SK-MEL-28 melanoma = test system: SK-MEL-28 melanoma
SK-MEL-5 melanoma = test system: SK-MEL-5 melanoma
SN12C renal = test system: SN12C renal
SK-OV-3 ovarian = test system: SK-OV-3 ovarian
UACC-62 melanoma = test system: UACC-62 melanoma
HL-60(TB) leukemia = test system: HL-60(TB) leukemia
786-0 renal = test system: 786-0 renal
MCF7 breast = test system: MCF7 breast
COLO 205 colon = test system: COLO 205 colon
MDA-MB-468 breast = test system: MDA-MB-468 breast
OVCAR-4 ovarian = test system: OVCAR-4 ovarian
BT-549 breast = test system: BT-549 breast
HCT-116 colon = test system: HCT-116 colon
MOLT-4 leukemia = test system: MOLT-4 leukemia
SNB-75 CNS = test system: SNB-75 CNS
SNB-19 CNS = test system: SNB-19 CNS
ACHN renal = test system: ACHN renal
HT29 colon = test system: HT29 colon
M14 melanoma = test system: M14 melanoma
T-47D breast = test system: T-47D breast
OVCAR-3 ovarian = test system: OVCAR-3 ovarian
A498 renal = test system: A498 renal
OVCAR-8 ovarian = test system: OVCAR-8 ovarian
SF-539 CNS = test system: SF-539 CNS
MALME-3M melanoma = test system: MALME-3M melanoma
SF-268 CNS = test system: SF-268 CNS
NCI-H460 lung = test system: NCI-H460 lung
RXF 393 renal = test system: RXF 393 renal
SF-295 CNS = test system: SF-295 CNS
DU-145 prostate = test system: DU-145 prostate
U251 CNS = test system: U251 CNS
K-562 leukemia = test system: K-562 leukemia

Nc1n[nH]c2cccc(C#Cc3cccc(NC(=O)Nc4cc(C(F)(F)F)cc(C(F)(F)F)c4)c3)c12
GI50 (TK-10 renal): 4.2 µM | TGI (TK-10 renal): 12.9 µM | GI50 (HS 578T breast): 1.97 µM | TGI (HS 578T breast): 7.7 µM | GI50 (SW-620 colon): 1.96 µM | TGI (SW-620 colon): 3.8 µM | GI50 (HCC-2998 colon): 2.31 µM | TGI (HCC-2998 colon): 5.07 µM | GI50 (LOX IMVI melanoma): 1.6 µM | TGI (LOX IMVI melanoma): 2.94 µM | GI50 (NCI-H226 lung): 2.82 µM | TGI (NCI-H226 lung): 9.34 µM | GI50 (NCI-H522 lung): 2.37 µM | TGI (NCI-H522 lung): 7.01 µM | GI50 (MDA-MB-435): 1.92 µM | TGI (MDA-MB-435): 4.18 µM | GI50 (UACC-257 melanoma): 2.59 µM | TGI (UACC-257 melanoma): 8.44 µM | GI50 (HCT-15 colon): 2.48 µM | TGI (HCT-15 colon): 10.1 µM | GI50 (SR leukemia): 2.58 µM | TGI (SR leukemia): 15.3 µM | GI50 (OVCAR-5 ovarian): 2.2 µM | TGI (OVCAR-5 ovarian): 10.4 µM | GI50 (IGROV1 ovarian): 2.66 µM | TGI (IGROV1 ovarian): 7.78 µM | GI50 (HOP-92 NSCLC): 1.9 µM | TGI (HOP-92 NSCLC): 5.12 µM | GI50 (A549 NSCLC): 2.59 µM | TGI (A549 NSCLC): 11.3 µM | GI50 (HOP-62 NSCLC): 1.93 µM | TGI (HOP-62 NSCLC): 4.25 µM | GI50 (CAKI-1 renal): 2.36 µM | TGI (CAKI-1 renal): 11.5 µM | GI50 (UO-31 renal): 3.11 µM | TGI (UO-31 renal): 10.3 µM | GI50 (RPMI-8226 leukemia): 2.63 µM | TGI (RPMI-8226 leukemia): 9.16 µM | GI50 (NCI-H23 lung): 2.16 µM | TGI (NCI-H23 lung): 5.44 µM | GI50 (CCRF-CEM leukemia): 3.27 µM | TGI (CCRF-CEM leukemia): 14.2 µM | GI50 (PC-3 prostate): 2.23 µM | TGI (PC-3 prostate): 6.96 µM | GI50 (SK-MEL-2 melanoma): 1.62 µM | TGI (SK-MEL-2 melanoma): 3.34 µM | GI50 (MDA-MB-231 breast): 1.06 µM | TGI (MDA-MB-231 breast): 2.45 µM | GI50 (EKVX NSCLC): 2.71 µM | TGI (EKVX NSCLC): 8.02 µM | GI50 (KM12 colon): 1.85 µM | TGI (KM12 colon): 4.1 µM | GI50 (SK-MEL-28 melanoma): 2.76 µM | TGI (SK-MEL-28 melanoma): 8.6 µM | GI50 (SK-MEL-5 melanoma): 1.88 µM | TGI (SK-MEL-5 melanoma): 3.69 µM | GI50 (SN12C renal): 1.52 µM | TGI (SN12C renal): 3.31 µM | GI50 (SK-OV-3 ovarian): 3.87 µM | TGI (SK-OV-3 ovarian): 12.3 µM | GI50 (UACC-62 melanoma): 2.11 µM | TGI (UACC-62 melanoma): 4.9 µM | GI50 (HL-60(TB) leukemia): 1.81 µM | TGI (HL-60(TB) leukemia): 7.04 µM | GI50 (786-0 renal): 2.16 µM | TGI (786-0 renal): 4.78 µM | GI50 (MCF7 breast): 2.52 µM | TGI (MCF7 breast): 7.36 µM | GI50 (COLO 205 colon): 1.88 µM | TGI (COLO 205 colon): 4 µM | GI50 (MDA-MB-468 breast): 2.22 µM | TGI (MDA-MB-468 breast): 6 µM | GI50 (OVCAR-4 ovarian): 2.6 µM | TGI (OVCAR-4 ovarian): 8.39 µM | GI50 (BT-549 breast): 1.97 µM | TGI (BT-549 breast): 5.3 µM | GI50 (HCT-116 colon): 2.07 µM | TGI (HCT-116 colon): 5.64 µM | GI50 (MOLT-4 leukemia): 2.77 µM | TGI (MOLT-4 leukemia): 10.2 µM | GI50 (SNB-75 CNS): 0.287 µM | TGI (SNB-75 CNS): 10.6 µM | GI50 (SNB-19 CNS): 7.62 µM | TGI (SNB-19 CNS): 21.2 µM | GI50 (ACHN renal): 2.71 µM | TGI (ACHN renal): 9.39 µM | GI50 (HT29 colon): 1.67 µM | TGI (HT29 colon): 3.26 µM | GI50 (M14 melanoma): 2.02 µM | TGI (M14 melanoma): 4.55 µM | GI50 (T-47D breast): 2.73 µM | TGI (T-47D breast): 11 µM | GI50 (OVCAR-3 ovarian): 2.67 µM | TGI (OVCAR-3 ovarian): 8.06 µM | GI50 (A498 renal): 3.84 µM | TGI (A498 renal): 10.4 µM | GI50 (OVCAR-8 ovarian): 2.93 µM | TGI (OVCAR-8 ovarian): 10 µM | GI50 (SF-539 CNS): 1.52 µM | TGI (SF-539 CNS): 4.28 µM | GI50 (MALME-3M melanoma): 1.6 µM | TGI (MALME-3M melanoma): 4.24 µM | GI50 (SF-268 CNS): 3.2 µM | TGI (SF-268 CNS): 14 µM | GI50 (NCI-H460 lung): 2.04 µM | TGI (NCI-H460 lung): 5.14 µM | GI50 (RXF 393 renal): 2.55 µM | TGI (RXF 393 renal): 6.69 µM | GI50 (SF-295 CNS): 2.32 µM | TGI (SF-295 CNS): 6.83 µM | GI50 (DU-145 prostate): 3.5 µM | TGI (DU-145 prostate): 12.5 µM | GI50 (U251 CNS): 2.3 µM | TGI (U251 CNS): 6.22 µM | GI50 (K-562 leukemia): 2.72 µM | TGI (K-562 leukemia): > 100 µM
